≈ marks a conversion by molar mass, not a printed value.
Molecular target: T1, α-glucosidase (sucrase) existing in small intestine of rat (Rattus norvegicus, UniProt P23739)
T1 construct: the supernatant liquid thereof was used as an enzyme solution (sucrase); from tissue; host or cells: rat small intestinal mucous membrane (brush border membrane)
Experiment: Inhibition of rat small intestinal α-glucosidase (sucrase), IC50
Format: biochemical
Conditions: partially purified rat small intestinal sucrase, 5 mM sucrose, 37° C. for 60 minutes
Experimental: As to the α-glucosidase, a sucrase solution which was partially purified from small intestinal mucous membrane (brush edge membrane) of rat was used. Namely, the mucous membrane of small intestine was exfoliated using a slide glass, homogenized at 4° C. for 5 minutes with a phosphate buffer and subjected to an ultrasonic treatment for 5 minutes. The resulting solution of smashed mucous membrane was centrifuged and the supernatant liquid thereof was used as an enzyme solution (sucrase). A 5 mM sucrose solution was used as a substrate, an enzyme solution and a predetermined amount of a 1-deoxynojirimycin solution or a mulberry extract were added and the reaction was carried out at 37° C. for 60 minutes and then stopped by a treatment at 100° C. for 5 minutes. Amount of glucose in the reaction solution was measured by a biochemical automatic analyzer.

T1 sequence (P23739 whole entry): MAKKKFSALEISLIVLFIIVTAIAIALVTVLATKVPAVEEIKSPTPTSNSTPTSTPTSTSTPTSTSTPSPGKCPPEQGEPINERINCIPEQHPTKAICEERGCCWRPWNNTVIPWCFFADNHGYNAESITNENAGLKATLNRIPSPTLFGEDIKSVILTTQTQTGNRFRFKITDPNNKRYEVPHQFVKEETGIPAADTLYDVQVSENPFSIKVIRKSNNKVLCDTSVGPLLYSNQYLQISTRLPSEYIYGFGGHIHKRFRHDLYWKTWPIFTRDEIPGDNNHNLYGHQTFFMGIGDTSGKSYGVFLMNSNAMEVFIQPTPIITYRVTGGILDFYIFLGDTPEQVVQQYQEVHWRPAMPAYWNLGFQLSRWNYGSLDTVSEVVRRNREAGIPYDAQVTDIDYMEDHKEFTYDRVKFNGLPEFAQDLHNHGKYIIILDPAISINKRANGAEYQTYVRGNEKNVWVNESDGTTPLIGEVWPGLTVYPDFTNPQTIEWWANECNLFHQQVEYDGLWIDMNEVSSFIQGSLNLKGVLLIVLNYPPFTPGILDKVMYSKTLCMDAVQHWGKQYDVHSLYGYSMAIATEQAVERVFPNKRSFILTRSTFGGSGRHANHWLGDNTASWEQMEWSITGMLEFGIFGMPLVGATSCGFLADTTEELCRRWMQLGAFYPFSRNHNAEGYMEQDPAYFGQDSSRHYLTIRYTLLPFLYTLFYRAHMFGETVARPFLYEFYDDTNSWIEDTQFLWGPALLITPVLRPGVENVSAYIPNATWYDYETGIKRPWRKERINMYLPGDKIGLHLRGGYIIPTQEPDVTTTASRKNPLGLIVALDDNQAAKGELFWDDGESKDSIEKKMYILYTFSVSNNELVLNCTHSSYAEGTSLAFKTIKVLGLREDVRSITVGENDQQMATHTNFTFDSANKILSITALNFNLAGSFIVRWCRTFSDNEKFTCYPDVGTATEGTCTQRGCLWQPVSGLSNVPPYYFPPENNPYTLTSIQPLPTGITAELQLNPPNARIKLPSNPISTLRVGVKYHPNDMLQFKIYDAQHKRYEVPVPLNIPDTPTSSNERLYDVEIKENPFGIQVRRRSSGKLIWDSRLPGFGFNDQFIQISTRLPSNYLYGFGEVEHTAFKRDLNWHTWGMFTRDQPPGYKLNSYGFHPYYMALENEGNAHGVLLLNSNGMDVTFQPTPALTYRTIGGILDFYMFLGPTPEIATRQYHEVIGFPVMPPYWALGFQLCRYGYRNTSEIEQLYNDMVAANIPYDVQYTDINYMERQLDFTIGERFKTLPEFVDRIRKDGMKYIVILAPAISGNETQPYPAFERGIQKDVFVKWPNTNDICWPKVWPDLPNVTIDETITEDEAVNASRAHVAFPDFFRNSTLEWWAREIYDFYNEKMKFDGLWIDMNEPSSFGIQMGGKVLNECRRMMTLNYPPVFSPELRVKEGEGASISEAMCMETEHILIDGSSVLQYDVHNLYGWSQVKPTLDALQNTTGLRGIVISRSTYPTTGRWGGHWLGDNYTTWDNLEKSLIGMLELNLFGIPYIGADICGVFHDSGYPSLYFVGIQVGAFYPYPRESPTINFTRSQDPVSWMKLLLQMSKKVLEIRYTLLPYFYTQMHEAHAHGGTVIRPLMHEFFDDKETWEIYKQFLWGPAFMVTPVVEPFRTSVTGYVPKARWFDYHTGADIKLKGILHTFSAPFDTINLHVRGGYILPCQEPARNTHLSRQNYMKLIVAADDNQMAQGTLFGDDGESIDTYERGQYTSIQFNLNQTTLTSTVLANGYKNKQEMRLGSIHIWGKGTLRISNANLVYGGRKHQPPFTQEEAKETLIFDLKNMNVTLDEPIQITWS

OC[C@H]1NC[C@H](O)[C@@H](O)[C@@H]1O [1-Deoxynojirimycin, 1-deoxynojirimycin]
IC50 to Sucrase: 0.05 µg/mL (≈ 0.306 µM)

From patent publication US20010018090A1, “Calorie reducing agent” (priority 1999, published 2001)
